Assay [1] in a line: Infusion in patient with unstable angina (Example II). The class given is in vivo, human. The source says:
A person is admitted to a hospital with unstable angina. The patient is given I.V. nitroglycerin, heparin and a beta blocker. However, the patient continues to experience chest pain at rest. The patient's normal NO level is known from past testing. […] Infusion at a rate of 5 nmol/min of NO in 0.9% NaCl is effected. The chest pain resolves.

A short description of assay [2]: Infusion in patient with primary pulmonary hypertension class II (Example III). The class given is in vivo, human. The source says:
A person with primary pulmonary hypertension class II presents complaining with shortness of breath. The patient's normal NO level is know from prior testing. […] Infusion of NO in 0.9% NaCl at a rate of 5 nmol/min of NO is effected. The shortness of breath symptom resolves. After three days of therapy, pulmonary artery pressure has dropped 5 mm of mercury.

The test system of another assay is outdated red blood cells. The experiment in a line: Organ chamber bioassay of vasodilator response at low pO2, outdated red blood cells (Example V). The class given is cell-based. The conditions noted are these: for relaxations: 1:250 molar ratio NO or nitrite to hemoglobin, deoxygenated with argon, then oxygenated by air, FIG. 3. The source says: Samples from each set were deoxygenated by bubbling argon gas therethrough and then admixed with PBS, PBS with NO dissolved therein or PBS with sodium nitrite dissolved therein. The treatments loaded the red blood cells with 1:250 molar ratio NO or nitrite to hemoglobin. The red blood cells were then oxygenated by exposure to air.

The next assay relates to Red cells. The experiment in a line: Storage of red cells incubated with NO at weekly intervals (Example VI). The class given is cell-based. The conditions noted are these: 1:250 molar ratio NO to hemoglobin, 10 minutes at weekly intervals; at 8 weeks. On the procedure:
Red cells are incubated at a molar ratio of 1:250 NO to hemoglobin for 10 minutes at weekly intervals. At 8 weeks, NO levels and vasodilator response are preserved.

A short description of assay [3]: Transfusion of NO-doped blood unit in patient with severe coronary artery disease (Example VII). The following applies: person; second blood unit doped with NO, 1:250 molar ratio of NO to hemoglobin. The class given is in vivo, human.
The subject of assay [4] is native fresh red blood cells. As for the experimental part: The samples were deoxygenated by placing them in a bioassay bath at low pO2. Then, in paired samples, sodium nitrite (1:200 molar ratio of nitite to hemoglobin in phosphate buffered saline) was added to the deoxygenated red blood cells for 10 minutes. The samples were then re-oxygenated by reintroducing air followed by shaking.

Another assay concerns the target hemoglobin (Homo sapiens, UniProt P68871+P69905). The conditions noted are these: PBS pH 7.4, 300 μM nitrite, heme 1 mM; compared to SNO-oxyhemoglobin samples.
For assay [5] the following is noted: anaerobic saturated solution in saline infused at 100 nmol/min.

Sequence of hemoglobin (P69905 2-142 limits assumed): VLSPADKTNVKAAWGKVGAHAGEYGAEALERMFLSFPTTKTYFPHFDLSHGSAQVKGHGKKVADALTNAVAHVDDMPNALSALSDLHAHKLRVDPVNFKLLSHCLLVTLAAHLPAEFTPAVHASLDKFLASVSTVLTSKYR
Sequence of hemoglobin (P68871 2-147 limits assumed): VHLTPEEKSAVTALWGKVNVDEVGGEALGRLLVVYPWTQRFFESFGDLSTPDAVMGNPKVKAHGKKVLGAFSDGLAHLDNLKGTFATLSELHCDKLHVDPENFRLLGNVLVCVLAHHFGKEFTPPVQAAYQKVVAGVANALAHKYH
Protocol for hemoglobin: For assay by EPR, spectroscopy was carried out as described in Gow, A. J., et al, Proc. Natl. Acad. Scie. […] SNO-oxyhemoglobin samples (0.5 mM protein) for comparison were prepared as described in Jia, L., et al, Nature, 380, 221-226 (1996).
Comparison was to SNO-oxyhemoglobin samples (0.5 mM protein) prepared as described in Jia, L., et al, Nature 380, 221-226 (1996).

For the compound `[N]=O` [NO, nitric oxide], the chest pain entry in assay [1] (person, unstable angina, infusion 5 nmol/min of NO in 0.9% NaCl) is on record as “resolves”. Further, the “drop of pulmonary artery pressure” value in assay [2] (after three days of therapy, NO 5 nmol/min) is 5 mm of mercury. Also, the “shortness of breath symptom” value in assay [2] (person, infusion of NO in 0.9% NaCl at 5 nmol/min) is listed as “resolves”. For the same compound, the relaxations entry in the assay on outdated red blood cells was “improved and effectively normalized”. For the same compound, the vasodilator response entry in the assay on Red cells is given as “preserved”. Besides, the “chest pain on transfusion” value in assay [3] is “not experienced”.

`O=NO` [nitrite]: in assay [1] (nitrite additionally given at 100 nmol/min with the NO infusion), the chest pain entry is listed as “resolves more quickly”. The relaxations result in the assay on outdated red blood cells was “improved and effectively normalized”. Also, in assay [4], the vasodilator response result was “no effect”. The “oxygen delivery improving activity identified with NO” value at hemoglobin is listed as “facilitated”.

Turning to `O=NO` [sodium nitrite], the vasodilator response entry in the assay with outdated red blood cells (1:200 molar ratio nitrite to hemoglobin in PBS, added to deoxygenated cells for 10 minutes, then re-oxygenated, FIG. 2) is given as “normalize”. Besides, the oxygen delivery entry in assay [5] is given as “Improved”.
